3 compounds from patent US12275731B2, “Azaindole inhibitors of wild-type and mutant forms of LRRK2” (DANA-FARBER CANCER INSTITUTE, INC., priority 2018, dated 2025) can be followed below.

Common to all, as to test: KinomeScan profiling
Common to all, as to type: binding

One assay has as its target LRRK2(G2019S) (Homo sapiens, UniProt Q5S007, G2019S). To be noted: read-out: % control. In outline: (§1)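 Normalised RLU (% control; DMSO 100%, positive control 0%) was measured for compounds dosed at 1 μM over 468 kinases, active cut-off <35%.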
Another assay deals with T1, KIT(D816V) (Homo sapiens, UniProt P10721, D816V).
T1 construct: purchased KinomeScan®
T1 sequence (P10721 26-976 D816V): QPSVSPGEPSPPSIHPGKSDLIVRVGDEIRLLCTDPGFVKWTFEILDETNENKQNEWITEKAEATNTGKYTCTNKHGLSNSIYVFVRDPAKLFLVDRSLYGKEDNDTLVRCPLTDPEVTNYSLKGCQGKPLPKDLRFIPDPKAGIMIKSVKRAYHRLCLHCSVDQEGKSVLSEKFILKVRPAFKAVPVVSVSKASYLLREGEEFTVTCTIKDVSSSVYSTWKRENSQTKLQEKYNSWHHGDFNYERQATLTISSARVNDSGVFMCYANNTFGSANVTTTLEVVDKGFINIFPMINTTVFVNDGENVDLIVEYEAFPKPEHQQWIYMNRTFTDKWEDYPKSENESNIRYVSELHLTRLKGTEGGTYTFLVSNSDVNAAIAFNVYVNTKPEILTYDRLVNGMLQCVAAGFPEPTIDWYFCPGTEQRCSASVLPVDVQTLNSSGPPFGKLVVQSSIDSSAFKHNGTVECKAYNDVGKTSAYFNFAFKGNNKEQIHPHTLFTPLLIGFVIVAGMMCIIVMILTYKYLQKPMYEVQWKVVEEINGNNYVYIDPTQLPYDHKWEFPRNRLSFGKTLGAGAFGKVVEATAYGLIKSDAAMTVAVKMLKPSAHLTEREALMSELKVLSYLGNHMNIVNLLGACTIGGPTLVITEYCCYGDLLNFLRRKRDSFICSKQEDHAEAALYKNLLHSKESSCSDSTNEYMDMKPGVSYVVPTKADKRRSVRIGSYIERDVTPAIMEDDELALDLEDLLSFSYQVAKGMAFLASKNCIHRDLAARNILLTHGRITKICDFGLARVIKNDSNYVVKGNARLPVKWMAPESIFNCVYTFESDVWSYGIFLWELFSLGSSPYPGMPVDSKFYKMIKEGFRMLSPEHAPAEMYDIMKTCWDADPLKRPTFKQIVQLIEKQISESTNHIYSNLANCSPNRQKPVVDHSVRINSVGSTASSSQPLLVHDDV
The note with it: read-out: % control. Put shortly: as §1

Another assay addresses T2, CASK (Homo sapiens, UniProt O14936).
T2 sequence (O14936 1-926): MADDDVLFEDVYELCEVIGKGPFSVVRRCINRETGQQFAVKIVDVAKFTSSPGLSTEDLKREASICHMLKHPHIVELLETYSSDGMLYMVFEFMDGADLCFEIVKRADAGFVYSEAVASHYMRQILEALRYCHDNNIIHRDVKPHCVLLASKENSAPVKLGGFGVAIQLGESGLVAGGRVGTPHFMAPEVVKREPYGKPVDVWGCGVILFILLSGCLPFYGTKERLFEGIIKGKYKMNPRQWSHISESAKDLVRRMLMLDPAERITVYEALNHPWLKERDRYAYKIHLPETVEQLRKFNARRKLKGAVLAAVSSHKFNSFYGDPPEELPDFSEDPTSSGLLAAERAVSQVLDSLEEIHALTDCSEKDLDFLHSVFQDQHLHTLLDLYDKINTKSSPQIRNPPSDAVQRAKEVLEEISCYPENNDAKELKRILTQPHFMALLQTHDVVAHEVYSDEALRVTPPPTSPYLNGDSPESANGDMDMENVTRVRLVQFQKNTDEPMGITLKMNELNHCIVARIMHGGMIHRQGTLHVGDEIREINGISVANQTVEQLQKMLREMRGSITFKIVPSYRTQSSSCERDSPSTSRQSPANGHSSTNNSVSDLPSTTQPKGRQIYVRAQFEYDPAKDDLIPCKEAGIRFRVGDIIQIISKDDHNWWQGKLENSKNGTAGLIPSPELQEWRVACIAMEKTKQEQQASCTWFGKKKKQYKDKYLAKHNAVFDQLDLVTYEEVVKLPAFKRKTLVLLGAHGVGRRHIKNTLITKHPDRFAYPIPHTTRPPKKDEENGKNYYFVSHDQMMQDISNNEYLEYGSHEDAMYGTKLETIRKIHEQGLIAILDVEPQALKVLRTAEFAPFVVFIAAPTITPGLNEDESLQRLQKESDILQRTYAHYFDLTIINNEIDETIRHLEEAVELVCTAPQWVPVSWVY
To be noted: read-out: % control. In outline:
as §1

For a further assay, the target named is T3, LKB1 (Homo sapiens, UniProt Q15831).
T3 sequence (Q15831 1-433): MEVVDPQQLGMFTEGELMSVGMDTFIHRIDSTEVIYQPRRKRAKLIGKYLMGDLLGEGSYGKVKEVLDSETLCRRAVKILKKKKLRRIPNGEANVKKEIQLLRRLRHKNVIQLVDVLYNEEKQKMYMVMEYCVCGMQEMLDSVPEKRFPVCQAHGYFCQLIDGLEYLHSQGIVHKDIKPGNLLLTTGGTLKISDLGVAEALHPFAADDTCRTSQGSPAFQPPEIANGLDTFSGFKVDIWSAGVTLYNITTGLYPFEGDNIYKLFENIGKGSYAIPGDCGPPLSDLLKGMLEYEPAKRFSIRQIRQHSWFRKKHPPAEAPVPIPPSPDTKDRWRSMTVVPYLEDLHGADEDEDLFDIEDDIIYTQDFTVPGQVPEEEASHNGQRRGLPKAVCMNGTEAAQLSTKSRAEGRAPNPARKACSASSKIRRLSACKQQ
The note with it: LKB1, 1 μM; read-out: % control. Put shortly: as §1

In the next assay the target is T4, LATS1 (Homo sapiens, UniProt O95835).
T4 construct: purchased KinomeScan®
T4 sequence (O95835 1-1130): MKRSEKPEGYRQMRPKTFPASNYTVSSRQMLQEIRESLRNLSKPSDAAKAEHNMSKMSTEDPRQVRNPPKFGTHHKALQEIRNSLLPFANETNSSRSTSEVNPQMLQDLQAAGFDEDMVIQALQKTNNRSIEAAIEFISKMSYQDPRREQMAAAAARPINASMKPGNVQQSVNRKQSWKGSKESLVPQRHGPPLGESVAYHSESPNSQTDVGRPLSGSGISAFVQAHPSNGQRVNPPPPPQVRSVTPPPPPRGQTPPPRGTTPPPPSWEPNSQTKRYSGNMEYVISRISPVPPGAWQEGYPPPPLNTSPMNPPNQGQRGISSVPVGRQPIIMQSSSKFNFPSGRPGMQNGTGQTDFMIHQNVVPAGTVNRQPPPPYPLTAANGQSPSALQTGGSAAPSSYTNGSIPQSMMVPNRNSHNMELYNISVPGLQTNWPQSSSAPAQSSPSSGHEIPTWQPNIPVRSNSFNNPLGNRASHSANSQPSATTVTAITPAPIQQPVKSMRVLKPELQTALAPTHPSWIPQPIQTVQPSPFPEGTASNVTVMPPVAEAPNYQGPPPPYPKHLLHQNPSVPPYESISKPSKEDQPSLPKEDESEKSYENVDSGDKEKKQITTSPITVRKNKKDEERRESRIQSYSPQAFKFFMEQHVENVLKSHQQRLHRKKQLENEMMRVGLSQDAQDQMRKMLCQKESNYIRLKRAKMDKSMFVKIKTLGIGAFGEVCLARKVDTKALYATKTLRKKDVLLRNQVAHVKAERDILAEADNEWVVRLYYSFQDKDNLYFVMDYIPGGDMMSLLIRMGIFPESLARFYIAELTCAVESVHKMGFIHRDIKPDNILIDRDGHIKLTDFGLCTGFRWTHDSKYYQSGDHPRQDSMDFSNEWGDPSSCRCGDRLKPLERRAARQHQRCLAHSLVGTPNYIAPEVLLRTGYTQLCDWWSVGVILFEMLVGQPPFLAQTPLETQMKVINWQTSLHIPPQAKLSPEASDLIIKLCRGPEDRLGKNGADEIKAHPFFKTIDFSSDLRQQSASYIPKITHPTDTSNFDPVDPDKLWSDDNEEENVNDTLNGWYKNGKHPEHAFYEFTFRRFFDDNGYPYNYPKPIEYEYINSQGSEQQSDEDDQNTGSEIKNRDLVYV
To be noted: LATS1, 1 μM; read-out: % control. Put shortly:
as §1

Sequence of LRRK2(G2019S) (Q5S007 whole entry G2019S): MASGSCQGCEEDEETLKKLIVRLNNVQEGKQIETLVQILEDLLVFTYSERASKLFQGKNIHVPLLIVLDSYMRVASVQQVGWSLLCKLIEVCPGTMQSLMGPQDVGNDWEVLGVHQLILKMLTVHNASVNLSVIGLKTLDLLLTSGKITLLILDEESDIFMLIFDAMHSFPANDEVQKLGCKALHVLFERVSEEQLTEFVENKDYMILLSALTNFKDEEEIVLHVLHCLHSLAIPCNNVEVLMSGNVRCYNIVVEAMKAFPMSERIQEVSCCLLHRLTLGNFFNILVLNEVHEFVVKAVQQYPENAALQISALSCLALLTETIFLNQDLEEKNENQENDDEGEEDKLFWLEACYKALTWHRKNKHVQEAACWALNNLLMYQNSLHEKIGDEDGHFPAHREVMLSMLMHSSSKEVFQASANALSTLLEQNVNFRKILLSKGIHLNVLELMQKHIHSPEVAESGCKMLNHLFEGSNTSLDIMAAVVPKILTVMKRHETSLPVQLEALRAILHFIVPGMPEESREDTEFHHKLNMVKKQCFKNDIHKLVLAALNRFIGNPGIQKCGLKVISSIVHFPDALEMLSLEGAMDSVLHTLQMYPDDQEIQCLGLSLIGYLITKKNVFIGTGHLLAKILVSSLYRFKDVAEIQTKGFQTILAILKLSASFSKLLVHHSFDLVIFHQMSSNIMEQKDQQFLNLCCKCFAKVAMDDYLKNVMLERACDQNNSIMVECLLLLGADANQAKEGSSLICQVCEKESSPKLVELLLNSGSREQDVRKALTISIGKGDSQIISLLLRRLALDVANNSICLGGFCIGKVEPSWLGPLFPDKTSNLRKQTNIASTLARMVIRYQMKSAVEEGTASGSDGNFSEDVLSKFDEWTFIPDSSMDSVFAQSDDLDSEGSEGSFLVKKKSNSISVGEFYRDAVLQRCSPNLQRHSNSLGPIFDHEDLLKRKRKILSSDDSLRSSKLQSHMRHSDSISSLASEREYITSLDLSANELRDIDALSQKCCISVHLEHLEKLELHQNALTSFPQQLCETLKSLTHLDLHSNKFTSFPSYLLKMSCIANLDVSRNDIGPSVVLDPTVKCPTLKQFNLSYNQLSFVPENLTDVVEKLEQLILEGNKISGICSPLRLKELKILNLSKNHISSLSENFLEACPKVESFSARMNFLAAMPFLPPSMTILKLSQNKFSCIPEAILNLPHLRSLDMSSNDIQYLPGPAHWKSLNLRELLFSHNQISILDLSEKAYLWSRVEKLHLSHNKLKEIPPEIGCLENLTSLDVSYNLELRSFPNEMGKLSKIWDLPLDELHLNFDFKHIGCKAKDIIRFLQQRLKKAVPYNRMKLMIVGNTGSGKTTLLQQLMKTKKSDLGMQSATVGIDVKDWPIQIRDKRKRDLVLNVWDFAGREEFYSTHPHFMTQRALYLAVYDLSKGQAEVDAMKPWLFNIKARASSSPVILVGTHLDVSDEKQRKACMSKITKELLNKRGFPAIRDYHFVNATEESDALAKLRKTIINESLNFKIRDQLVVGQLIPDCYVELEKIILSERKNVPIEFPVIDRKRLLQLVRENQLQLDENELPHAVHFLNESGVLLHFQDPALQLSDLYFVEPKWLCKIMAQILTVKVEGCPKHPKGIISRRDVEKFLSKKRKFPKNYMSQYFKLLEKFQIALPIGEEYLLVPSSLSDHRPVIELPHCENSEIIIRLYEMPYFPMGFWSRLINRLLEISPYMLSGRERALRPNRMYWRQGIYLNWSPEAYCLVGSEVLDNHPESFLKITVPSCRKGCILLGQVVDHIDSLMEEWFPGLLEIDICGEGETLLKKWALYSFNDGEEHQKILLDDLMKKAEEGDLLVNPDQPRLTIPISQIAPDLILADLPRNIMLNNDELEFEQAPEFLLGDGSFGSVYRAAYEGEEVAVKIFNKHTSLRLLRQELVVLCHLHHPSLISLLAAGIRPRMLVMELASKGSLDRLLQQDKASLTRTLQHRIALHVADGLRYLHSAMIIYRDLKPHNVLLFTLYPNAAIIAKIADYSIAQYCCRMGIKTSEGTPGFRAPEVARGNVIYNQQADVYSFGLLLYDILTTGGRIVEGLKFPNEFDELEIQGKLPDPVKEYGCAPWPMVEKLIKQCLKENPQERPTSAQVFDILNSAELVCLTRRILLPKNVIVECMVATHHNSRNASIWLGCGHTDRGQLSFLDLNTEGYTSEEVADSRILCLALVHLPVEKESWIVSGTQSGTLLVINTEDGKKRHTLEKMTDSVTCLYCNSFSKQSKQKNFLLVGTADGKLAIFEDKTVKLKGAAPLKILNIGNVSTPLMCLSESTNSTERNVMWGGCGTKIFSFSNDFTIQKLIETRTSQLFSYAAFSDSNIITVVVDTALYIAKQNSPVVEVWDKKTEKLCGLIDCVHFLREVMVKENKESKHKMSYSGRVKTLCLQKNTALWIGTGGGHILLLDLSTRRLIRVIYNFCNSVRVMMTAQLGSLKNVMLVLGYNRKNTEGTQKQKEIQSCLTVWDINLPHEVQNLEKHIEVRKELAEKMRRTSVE

Turning to `CNc1c(-c2cnn([C@H]3CCN(C(C)=O)C[C@@H]3F)c2)cnc2[nH]cc(Cl)c12` [Compound 77, 1-((3S,4S)-4-(4-(3-chloro-4-(methylamino)-1H-pyrrolo[2,3-b]pyridin-5-yl)-1H-pyrazol-1-yl)-3-fluoropiperidin-1-yl)ethan-1-one], the remaining binding at 1 µM at LRRK2(G2019S) turned out to be 11%; on KIT(D816V) it was 46%; at CASK, 95%; at LKB1 it was 88%; at LATS1 it was 91%.
In the same order, the values of `CNc1c(-c2ccc(C(=O)N3CCC(N4CCOCC4)CC3)cc2)cnc2[nH]cc(Cl)c12` [Compound 96, (4-(3-chloro-4-(methylamino)-1H-pyrrolo[2,3-b]pyridin-5-yl)phenyl)(4-morpholinopiperidin-1-yl)methanone] are 3.2%, 86%, 94%, 91% and 100%.
The like results for `O=C(c1ccc(-c2cnc3[nH]cc(Cl)c3c2NC2CCCC2)cc1)N1CCC(N2CCOCC2)CC1` [Compound 101, (4-(3-chloro-4-(cyclopentylamino)-1H-pyrrolo[2,3-b]pyridin-5-yl)phenyl)(4-morpholinopiperidin-1-yl)methanone] were, in that order, 22%, 95%, 100%, 78% and 100%.
